Results: patent publication US10604512B2, “3-(1H-indol-2-yl)-1H-indazoles and therapeutic uses thereof” (Samumed, LLC, priority 2015, dated 2020)

Assays:
Type in all cases: cell-based
[1] = system: Primary human fibroblasts derived from IPF patients (LL29 cells) treated with TGF-β1; test: Inhibition of the fibrotic process: αSMA staining in TGF-β1-treated primary human fibroblasts from IPF patients (LL29 cells); settings: Fibroblast, 96 h, % αSMA-positive LL29 cells, TGF-β1 20 ng/mL, 4 days
Summary of the method: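 LL29 IPF-patient fibroblasts in 1% FBS stimulated with TGF-β1 (20 ng/mL) and compound (10 μM–1.87 nM, 0.1% DMSO) for 4 days at 37 °C. SYTOX-positive cells excluded; % αSMA-positive cells imaged, normalized to TGF-β1/DMSO wells; EC50 by nonlinear regression, else % inhibition at 10 μM.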

[2] = system: Wnt activity (Sp5-Luc reporter, TCF/LEF binding sites) in SW480 colon carcinoma cells; test: Screening assay for Wnt activity: Sp5-Luc reporter gene assay in stably transduced SW480 colon carcinoma cells; settings: Homo sapiens, overnight incubation, 10-point curve from 10 μM
Summary of the method: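 SW480 cells stably transduced with a luciferase reporter driven by an Sp5 promoter of eight TCF/LEF sites were plated at 4,000 cells/well in 1% FBS medium. They were exposed overnight at 37° C to a 10-point 1:3 dilution series from 10 μM (0.1% DMSO). Luminescence was normalized to DMSO for four-parameter EC50, or percent inhibition at 10 μM.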

SW480 colon cancer cells = test: Cell viability assay (CellTiter-Blue) in SW480 colon cancer cells; settings: Homo sapiens, 96 h, four days, CellTiter-Blue
Summary of the method: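 SW480 cells (~2×10^3 per well) were exposed to compound for four days at 37 °C/5% CO2, using 8-point 1:3 dilutions from 10 μM to 0.0045 μM in duplicate. Viability was read by resazurin reduction (CellTiter-Blue, ~3 h, Ex 560/Em 590 nm). EC50 came from non-linear regression; above 10 μM, percent inhibition at 10 μM is given.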

IL-6 = test: Inhibition of IL-6 in LPS-stimulated THP-1 human monocyte cells (HTRF); settings: IL-6 inhibition, LPS-stimulated THP-1 cells, HTRF
Summary of the method: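 THP-1 cells serum-reduced (1% FBS, 24 h), then 5000 cells/well preincubated 2 h with compound (10-point 1:3 series from 10 μM, 0.1% DMSO) before 500 ng/mL LPS for 22 h at 37 °C. Secreted IL-6 quantified by HTRF 665/620 ratio; DMSO-normalised duplicates fitted to four-parameter EC50; above 10 μM, % inhibition at 10 μM given.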

Question: `Cc1ccncc1-c1ccc2[nH]nc(-c3cc4c(-c5cc(F)cc(CNS(C)(=O)=O)c5)cccc4[nH]3)c2c1` [Compound 481, N-(3-Fluoro-5-(2-(5-(4-methylpyridin-3-yl)-1H-indazol-3-yl)-1H-indol-4-yl)benzyl)methanesulfonamide] was tested. Which EC50 [1] did it give?
Answer: 156 nM

Question: What about the EC50 [2] of the same compound?
Answer: 105 nM

Question: And the EC50 (SW480 colon cancer cells)?
Answer: 891 nM

Question: What about the EC50 (IL-6) of the same compound?
Answer: 122 nM

Question: For `CS(=O)(=O)NCc1cc(F)cc(-c2cccc3[nH]c(-c4n[nH]c5ccc(-c6cncc(NC(=O)c7ccccc7)c6)cc45)cc23)c1` [Compound 487, N-(5-(3-(4-(3-Fluoro-5-(methylsulfonamidomethyl)phenyl)-1H-indol-2-yl)-1H-indazol-5-yl)pyridin-3-yl)benzamide], which EC50 [1] is on record?
Answer: 313 nM

Question: What about the EC50 [2] of the same compound?
Answer: 650 nM

Question: And the EC50 (SW480 colon cancer cells)?
Answer: 3180 nM

Question: What about the EC50 (IL-6) of the same compound?
Answer: 2060 nM

Question: With `CN(C)Cc1cncc(-c2ccc3[nH]nc(-c4cc5c(-c6cc(F)cc(CNS(C)(=O)=O)c6)cccc5[nH]4)c3c2)c1` [Compound 489, N-(3-(2-(5-(5-((Dimethylamino)methyl)pyridin-3-yl)-1H-indazol-3-yl)-1H-indol-4-yl)-5-fluorobenzyl)methanesulfonamide] as the compound, how does the EC50 [1] read?
Answer: 406 nM

Question: What about the EC50 [2] of the same compound?
Answer: 120 nM

Question: And the EC50 (SW480 colon cancer cells)?
Answer: 568 nM

Question: And the EC50 (IL-6)?
Answer: 1060 nM

Question: What does the source list for `CS(=O)(=O)NCc1cc(F)cc(-c2cccc3[nH]c(-c4n[nH]c5ccc(-c6cncc(CN7CCCCC7)c6)cc45)cc23)c1` [Compound 491, N-(3-Fluoro-5-(2-(5-(5-(piperidin-1-ylmethyl)pyridin-3-yl)-1H-indazol-3-yl)-1H-indol-4-yl)benzyl)methanesulfonamide]?
Answer: EC50 [1]: 833 nM; EC50 [2]: 540 nM; EC50 (SW480 colon cancer cells): 1490 nM; EC50 (IL-6): 5450 nM

Question: How did the EC50 [1] turn out when `CS(=O)(=O)NCc1cc(F)cc(-c2cccc3[nH]c(-c4n[nH]c5ccc(-c6cncc(NC(=O)C7CC7)c6)cc45)cc23)c1` [Compound 496, N-(5-(3-(4-(3-Fluoro-5-(methylsulfonamidomethyl)phenyl)-1H-indol-2-yl)-1H-indazol-5-yl)pyridin-3-yl)cyclopropanecarboxamide] was run?
Answer: 399 nM

Question: What about the EC50 [2] of the same compound?
Answer: 130 nM

Question: And the EC50 (SW480 colon cancer cells)?
Answer: 1030 nM

Question: What about the EC50 (IL-6) of the same compound?
Answer: 991 nM

Question: `CS(=O)(=O)NCc1cc(F)cc(-c2cccc3[nH]c(-c4n[nH]c5ccc(-c6cncc(CN7CCC(F)(F)C7)c6)cc45)cc23)c1` [Compound 502, N-(3-(2-(5-(5-((3,3-Difluoropyrrolidin-1-yl)methyl)pyridin-3-yl)-1H-indazol-3-yl)-1H-indol-4-yl)-5-fluorobenzyl)methane sulfonamide] was tested. Which EC50 [1] did it give?
Answer: 811 nM

Question: What about the EC50 [2] of the same compound?
Answer: 475 nM

Question: What about the EC50 (SW480 colon cancer cells) of the same compound?
Answer: 3270 nM

Question: And the EC50 (IL-6)?
Answer: 3140 nM

Question: `CCNCc1cncc(-c2ccc3[nH]nc(-c4cc5ncccc5[nH]4)c3c2)c1` [Compound 510, N-((5-(3-(1H-pyrrolo[3,2-b]pyridin-2-yl)-1H-indazol-5-yl)pyridin-3-yl)methyl)ethanamine] was tested. Which EC50 [1] did it give?
Answer: 1590 nM

Question: And the EC50 [2]?
Answer: 464 nM

Question: What about the EC50 (SW480 colon cancer cells) of the same compound?
Answer: 345 nM

Question: And the EC50 (IL-6)?
Answer: 98 nM

Question: `Fc1ccccc1-c1cccc2[nH]c(-c3n[nH]c4ccc(-c5cncc(OC6CCNCC6)c5)cc34)cc12` [Compound 572, 3-(4-(2-Fluorophenyl)-1H-indol-2-yl)-5-(5-(piperidin-4-yloxy)pyridin-3-yl)-1H-indazole] was tested. Which EC50 [1] did it give?
Answer: 2230 nM

Question: And the EC50 [2]?
Answer: 1020 nM

Question: What about the EC50 (SW480 colon cancer cells) of the same compound?
Answer: 1400 nM

Question: And the EC50 (IL-6)?
Answer: 3500 nM

Question: How did the EC50 [1] turn out when `c1cncc(-c2cccc3[nH]c(-c4n[nH]c5ccc(-c6cn[nH]c6)cc45)cc23)c1` [Compound 583, 5-(1H-Pyrazol-4-yl)-3-(4-(pyridin-3-yl)-1H-indol-2-yl)-1H-indazole] was run?
Answer: 501 nM

Question: What about the EC50 [2] of the same compound?
Answer: 49 nM

Question: And the EC50 (SW480 colon cancer cells)?
Answer: 128 nM

Question: What about the EC50 (IL-6) of the same compound?
Answer: 78 nM

Question: For `Cn1cc(-c2ccc3[nH]nc(-c4cc5c(-c6cccnc6)cccc5[nH]4)c3c2)cn1` [Compound 584, 5-(1-Methyl-1H-pyrazol-4-yl)-3-(4-(pyridin-3-yl)-1H-indol-2-yl)-1H-indazole], which EC50 [1] is on record?
Answer: 6820 nM

Question: And the EC50 [2]?
Answer: 150 nM

Question: And the EC50 (SW480 colon cancer cells)?
Answer: 949 nM

Question: What about the EC50 (IL-6) of the same compound?
Answer: 12 nM
